# Assay results as given in ChEMBL document CHEMBL4024736, “Recent progress on the treatment of Ebola virus disease with Favipiravir and other related strategies” (Bioorg Med Chem Lett, 2017).
# Assays:
# [1] = Antiviral activity against Respiratory syncytial virus A2 infected in Hep2 cells; type: functional, cell-based; conditions: human respiratory syncytial virus, HEp-2
# Ebolavirus [2] = experiment: Antiviral activity against Ebola virus Mayinga Zaire 1976 infected in IFNAR-/- C57BL/6 mouse assessed as survival at 300 mg/kg, po administered twice daily for 13 days measured after 3 weeks; type: functional; conditions: Orthoebolavirus
# Ebolavirus [3] = experiment: Antiviral activity against Ebolavirus assessed as reduction in viral titer; type: functional; conditions: Orthoebolavirus
# Ebolavirus [4] = experiment: Antiviral activity against Ebola virus Mayinga Zaire 1976 infected in IFNAR-/- C57BL/6 mouse at 300 mg/kg, po administered twice daily measured up to 6 days post infection; type: functional
# Ebolavirus [5] = experiment: Antiviral activity against Ebola virus Mayinga Zaire 1976 infected in IFNAR-/- C57BL/6 mouse assessed as biochemical correlates of disease at 300 mg/kg, po administered twice daily; type: functional
# [6] = Antiviral activity against Foot-and-mouth disease virus O/JPN/2000 by plaque reduction assay; type: functional
# Ebolavirus [7] = experiment: Antiviral activity against Ebolavirus E718 infected in Vero E6 cells assessed as effective dose after 6 days by neutral red stain based microscopic method; type: functional, Vero C1008
# Ebolavirus [8] = experiment: Antiviral activity against Ebolavirus E718 infected in A129 interferon alpha/beta receptor knockout immunodeficient mouse assessed as survival rate at 150 mg/kg, po administered twice daily for 14 days measured after 2 weeks post last dose relative to control; type: functional; conditions: Orthoebolavirus, 336 h
smiles,measurement,setting,value
NC(=O)c1nc(F)cnc1O [FAVIPIRAVIR],IC50,[1],41 µg/mL
same,survival at 300 mg/kg,Ebolavirus [2],100%
same,IC50,Ebolavirus [3],67 µM
same,Activity,Ebolavirus [4],100%
same,Activity,Ebolavirus [5],20%
same,EC50,[6],12 µM
same,ED,Ebolavirus [7],400 µM
same,survival at 150 mg/kg,Ebolavirus [8],100%
